PMC8776995 (Frontiers in Chemistry, 2022)
Where “and” joins values, the source holds several entries; their conditions need not be identical. Equal entries are not always repeated. Where two headings read alike, the source gives them in different places.

Legend:
[1] = system: A549 cells; test: CCK-8 antiproliferation assay, A549; conditions: for Inhibitory efficacy: A549 cells
Procedure: (§1) The compounds were dissolved in DMSO to make a 20 μM stock solution and diluted to the concentration of working solutions with complete growth medium before administration.
(§2) Cells were seeded in 96-well plates: 3,000–5,000 cells/well in 100 ul. One day after seeding, the test compounds at concentration between 1.0 and 16.0 μ M or 0.1% DMSO (as control) were added to cells in triplicate. 48 h later, CCK-8 was added and incubated the plate for 1–4 h in the incubator. The absorbance at 450 nm were measured using a microplate reader (Bio-Tek).

[2] = system: H460 cells; test: CCK-8 antiproliferation assay, H460; conditions: given as fraction, Repeat 1-3; for Inhibitory efficacy: H460 cells
Procedure: as §1, §2

[3] = system: EGFR phosphorylation (Tyr1068) in H460 cells; test: Western blot, p-EGFR/EGFR in H460; conditions: for p-EGFR/EGFR: band density ratio; for p-EGFR/EGFR relative to DMSO: ratio normalised to DMSO
Procedure: We also performed western blot analysis to evaluate the impact of e4 and e12 on EGFR signaling in PC-9 and H460 cells.
H460 cells were seeded in six-well plates with serum-free medium overnight, and then treated complete medium containing 0.1% DMSO, various concentrations (0.1, 1 and 10 μM) of either compound e4 or e12 for 2 h, respectively. […] Then the H460 cells were treated with complete medium containing EGF (10 ng/ml) for 5 min. Then the cells were harvested and washed with PBS, centrifuged, resuspended in 100–200 μl of RIPA lysis buffer containing Protease and Phosphatase Inhibitor Cocktail (1X), and then centrifuged for 5 min at 12,000 rpm at 4°C. The supernatant was used for protein analysis. […] Then the membrane was washed 5 min (X3) and incubated at 1:3,000 dilution of anti-rabbit secondary antibodies or 1:1,000 dilution of anti-mouse secondary antibodies for 1 h at RT. After washing with TBST 5 min (X3), protein bands were developed by chemiluminescence. The protein levels were quantified by the gray values of the bands in the resulting images by ImageJ, and the control group was used as the standard. […] The PC-9 cells were harvested and analyzed as above.

[4] = system: H460 cells; test: Annexin V/PI flow cytometry for cell apoptosis, H460; type: cell-based, human; conditions: for Percentage of apoptosis, Average: average of three runs; for Q2+Q3 / Lymphocytes/Q2: FITC-A+ , PI-A+ Freq. of Parent / Lymphocytes/Q3: FITC-A+ , PI-A- Freq. of Parent / Percentage of apoptosis: single runs; for Q2+Q3: given as fraction; for Lymphocytes/Q2: FITC-A+ , PI-A+ Freq. of Parent / Lymphocytes/Q3: FITC-A+ , PI-A- Freq. of Parent / Percentage of apoptosis: time as in file name (24h, 48h or not given)
Procedure: To establish whether the antiproliferative efficacy is associated with apoptosis, PC-9 and H460 cells were treated with compound e4 or e12 of various concentrations (4, 8 and 12 μM) for 48 h, and then assessed with flow cytometry.
Cell-apoptosis analysis was carried out by flow cytometry using the Annexin V/PI apoptosis kit according to the manufacturer’s manual. Briefly, PC-9 or H460 (3 × 10^4–5 × 10^4/well) cells were seeded in 12-well plates for 24 h, and then treated with 0.1% DMSO (as control) or various concentrations of compound e4 or e12 for 48 h, respectively. Cells were harvested, washed with PBS, and then incubated with 100ul of 1X Annexin V binding buffer containing 1 μl PI and 1 μl FITC Annexin V for 15 min at RT in the dark. 200 µl of 1X binding buffer were added to each tube for flow cytometry analysis (BD LSRFortessa™ Flow Cytometer). The percentages of apoptotic cells were analyzed using FlowJo soft.

[5] = system: CCND1, CCNA2, CCNB1, CDK2, CDK6 RNA in PC-9 cells; test: qPCR assay for cell cycle-related gene analysis; type: cell-based, human; conditions: for CCNB relative mRNA expression (2^-ddCt vs NC, normalised to beta-Actin) / CCND1 relative mRNA expression (2^-ddCt vs NC, normalised to beta-Actin) / CDK6 relative mRNA expression (2^-ddCt vs NC, normalised to beta-Actin): qPCR SYBR_GREEN, NC = 1; for RQ: CCNA mRNA, endogenous control b-Actin, reference sample NC; for 2^ΔΔCт CCNA: Repeat 1-3, relative to NC = 1
From the text: To better understand the mechanisms underlying cell cycle arrest induced by e4 and e12 in NSCLC cells, we assessed the expression levels of a few genes involved in cell cycle regulation, including cyclin D1 (CCND1), cyclin A2 (CCNA2), cyclin B1 (CCNB1), cyclin-dependent kinase 2 (CDK2), and cyclin-dependent kinase 6 (CDK6) in PC-9 by qPCR. […] CCNA2 is known to bind and activate CDK2 and thus promotes the transition through G1/S and G2/M. CCNB1 and CCND1 are essential to mitosis and G1/S transition respectively. While G2/M arrest weas not detected, the changes in these gene expression profiles interpret the G1/S arrests in PC-9 cells treated with e4 and e12. PC-9 cells exposed to the compounds for various periods should be examined further.
Total RNA of cells was extracted and cDNA was synthesized. The primers for the target products were designed as in Table 3.

COCCOc1cc2ncnc(Nc3cccc(-c4cn(-c5ccc(C)cc5)nn4)c3)c2cc1OCCOC [e12, [6,7-Bis-(2-methoxy-ethoxy)-quinazolin-4-yl]-[3-(1-p-tolyl-1H-[1,2,3]triazol-4-yl)-phenyl]-amine]
Inhibitory efficacy ([1]; 1uM, given as fraction, Repeat 1-3): 0.1461 and 0.1139
Inhibitory efficacy ([1]; 2uM, given as fraction, Repeat 1-3): 0.3261 and 0.1967
Inhibitory efficacy ([1]; 4uM, given as fraction, Repeat 1-3): 0.4378 and 0.3806
Inhibitory efficacy ([1]; 8uM, given as fraction, Repeat 1-3): 0.5646 and 0.5114
Inhibitory efficacy ([1]; 16uM, given as fraction, Repeat 1-3): 0.7887 and 0.7821
IC50 ([1]; Homo sapiens, A549, 48 h, read-out: IC50 (μM) A549, CCK-8, 48 h, average ± SD of three independent experiments): < 10 µM
inhibition at 1 µM ([1]; Homo sapiens, A549, read-out: Inhibitory efficacy, A549 cells, 1uM, given as fraction, Repeat 1-3): 9.61%
inhibition at 2 µM ([1]; Homo sapiens, A549, read-out: Inhibitory efficacy, A549 cells, 2uM, given as fraction, Repeat 1-3): 26.8%
inhibition at 4 µM ([1]; Homo sapiens, A549, read-out: Inhibitory efficacy, A549 cells, 4uM, given as fraction, Repeat 1-3): 37.9%
inhibition at 8 µM ([1]; Homo sapiens, A549, read-out: Inhibitory efficacy, A549 cells, 8uM, given as fraction, Repeat 1-3): 51.9%
inhibition at 16 µM ([1]; Homo sapiens, A549, read-out: Inhibitory efficacy, A549 cells, 16uM, given as fraction, Repeat 1-3): 78.5%
IC50 ([1]; read-out: IC50 (μM) A549, CCK-8, 48 h, average ± SD of three independent experiments): 5.91 ± 0.73 µM
Inhibitory efficacy ([2]; 1uM): 0.2117 and 0.1598
Inhibitory efficacy ([2]; 2uM): 0.3397 and 0.3411
Inhibitory efficacy ([2]; 4uM): 0.5452 and 0.4421
Inhibitory efficacy ([2]; 8uM): 0.667 and 0.5743
Inhibitory efficacy ([2]; 16uM): 0.9091 and 0.887
inhibition at 1 µM ([2]; Homo sapiens, NCI-H460, read-out: Inhibitory efficacy, H460 cells, 1uM): 16.7%
inhibition at 2 µM ([2]; Homo sapiens, NCI-H460, read-out: Inhibitory efficacy, H460 cells, 2uM): 36.8%
inhibition at 4 µM ([2]; Homo sapiens, NCI-H460, read-out: Inhibitory efficacy, H460 cells, 4uM): 58.9%
inhibition at 8 µM ([2]; Homo sapiens, NCI-H460, read-out: Inhibitory efficacy, H460 cells, 8uM): 65.1%
inhibition at 16 µM ([2]; Homo sapiens, NCI-H460, read-out: Inhibitory efficacy, H460 cells, 16uM): 88.9%
p-EGFR/EGFR ([3]; H460, 0.1 uM): 0.7896
p-EGFR/EGFR relative to DMSO ([3]; H460, 0.1 uM): 0.9489
p-EGFR/EGFR ([3]; H460, 1 uM): 0.75
p-EGFR/EGFR relative to DMSO ([3]; H460, 1 uM): 0.9013
p-EGFR/EGFR ([3]; H460, 10 uM): 0.166
p-EGFR/EGFR relative to DMSO ([3]; H460, 10 uM): 0.1995
phosphorylation of EGFR (western blot) ([3]; H460, especially at 10 μM): suppressed
Percentage of apoptosis, Average ([4]; H460, 4uM): 14.68%
Q2+Q3 ([4]; H460, 4uM): 0.149
Lymphocytes/Q2: FITC-A+ , PI-A+ Freq. of Parent ([4]; H460, 4uM): 8.07% and 10.30% and 7.57%
Lymphocytes/Q3: FITC-A+ , PI-A- Freq. of Parent ([4]; H460, 4uM): 6.83% and 3.75% and 7.52%
Percentage of apoptosis ([4]; H460, 4uM): 14.9% and 14.05% and 15.09%
Percentage of apoptosis, Average ([4]; H460, 8uM): 16.0567%
Q2+Q3 ([4]; H460, 8uM): 0.1436
Lymphocytes/Q2: FITC-A+ , PI-A+ Freq. of Parent ([4]; H460, 8uM): 7.09% and 10.30% and 10.90%
Lymphocytes/Q3: FITC-A+ , PI-A- Freq. of Parent ([4]; H460, 8uM): 7.27% and 6.59% and 6.02%
Percentage of apoptosis ([4]; H460, 8uM): 14.36% and 16.89% and 16.92%
Percentage of apoptosis, Average ([4]; H460, 12uM): 28.7833%
Q2+Q3 ([4]; H460, 12uM): 0.213
Lymphocytes/Q3: FITC-A+ , PI-A- Freq. of Parent ([4]; H460, 12uM): 10.9% and 9.22% and 9.03%
Percentage of apoptosis ([4]; H460, 12uM): 21.3% and 31.62% and 33.43%
cell apoptosis (flow cytometry) ([4]; H460, 4, 8 and 12 μM, 48 h): significant cell apoptosis
CCNB relative mRNA expression (2^-ddCt vs NC, normalised to beta-Actin) ([5]; 4uM): 0.9828
CCND1 relative mRNA expression (2^-ddCt vs NC, normalised to beta-Actin) ([5]; 4uM): 0.7886
CDK6 relative mRNA expression (2^-ddCt vs NC, normalised to beta-Actin) ([5]; 4uM): 0.5928
CCNB relative mRNA expression (2^-ddCt vs NC, normalised to beta-Actin) ([5]; 8uM): 0.8452
CCND1 relative mRNA expression (2^-ddCt vs NC, normalised to beta-Actin) ([5]; 8uM): 0.7649
CDK6 relative mRNA expression (2^-ddCt vs NC, normalised to beta-Actin) ([5]; 8uM): 0.8101
CCNB relative mRNA expression (2^-ddCt vs NC, normalised to beta-Actin) ([5]; 12uM): 0.7825
CCND1 relative mRNA expression (2^-ddCt vs NC, normalised to beta-Actin) ([5]; 12uM): 0.6173
CDK6 relative mRNA expression (2^-ddCt vs NC, normalised to beta-Actin) ([5]; 12uM): 0.676
RQ ([5]; 4uM): 0.8394
RQ ([5]; 8uM): 0.6204
RQ ([5]; 12uM): 0.7362
2^ΔΔCт CCNA ([5]; 4uM): 0.5435 and 0.6447 and 0.8394
2^ΔΔCт CCNA ([5]; 8uM): 0.582 and 0.5272 and 0.6204
